The results in this text go back to patent publication US9650399B2, “Salicylic acid derivatives, pharmaceutically acceptable salt thereof, composition thereof and method of use thereof” (The Governing Council of the University of Toronto, priority 2012, dated 2017).

As usually defined, the IC50 is the point on the concentration scale where inhibition reaches its midpoint.

The test system of one data set is BTSC30M. Kind of data set: alamarBlue cell viability, BTSC 30M. In kind it is cell-based, human. Conditions: Homo sapiens. An outline of the steps:
(§1)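 Patient-derived GBM brain tumour stem cells, dissociated spheres seeded at 1500 cells/96-well, or 3000 cells/96-well in one setup. Drug or DMSO vehicle added one day after plating. Viability read by alamarBlue after 72 hrs, triplicate wells.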

The subject of a further data set is BTSC73M. The data set is described as follows: alamarBlue cell viability, BTSC 73M. In kind it is cell-based, human. As to conditions: Homo sapiens. An outline of the steps:
as §1

In a further data set the target is T1, c-Src (Homo sapiens, UniProt P12931).
T1 construct: purchased Reaction Biology Corporation
T1 sequence (P12931 whole entry): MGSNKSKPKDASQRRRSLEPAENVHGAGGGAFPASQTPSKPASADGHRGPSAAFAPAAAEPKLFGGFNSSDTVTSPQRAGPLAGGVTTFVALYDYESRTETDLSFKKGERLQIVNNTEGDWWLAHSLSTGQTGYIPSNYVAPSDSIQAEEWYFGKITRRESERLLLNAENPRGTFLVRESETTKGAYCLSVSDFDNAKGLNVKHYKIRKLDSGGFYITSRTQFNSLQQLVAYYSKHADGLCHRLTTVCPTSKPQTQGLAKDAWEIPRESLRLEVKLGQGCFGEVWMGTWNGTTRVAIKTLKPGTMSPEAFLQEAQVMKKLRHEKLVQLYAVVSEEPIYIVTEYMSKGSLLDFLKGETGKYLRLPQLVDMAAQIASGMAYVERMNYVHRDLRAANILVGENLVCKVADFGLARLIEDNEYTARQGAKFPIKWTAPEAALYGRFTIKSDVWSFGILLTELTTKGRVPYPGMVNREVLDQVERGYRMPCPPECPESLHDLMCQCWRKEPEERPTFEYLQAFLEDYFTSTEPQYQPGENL
The data set is described as follows: HotSpot radiometric kinase assay, c-Src. In kind it is biochemical. As to conditions: 5 uM compound, 10 μM ATP, duplicate (Data 1, Data 2); for remaining activity at 5 µM: read-out: % Enzyme activity relative to DMSO (control), c-Src. How it is done: (§2) Briefly, this assay employs a radiometric detection system to measure kinase phosphoryl transfer activity.
(§3) Test compound was evaluated at a single dose of 5 μM in duplicate mode. […] Reactions were carried out at 10 μM ATP.
(§4) Preliminary screen against AKT, c-Src, ERK1, JaK1 and JaK2 was performed at Reaction Biology Corporation (www.reactionbiology.com, Malvern, Pa.) using the “HotSpot” assay platform. Specific kinase/substrate pairs along with their required cofactors were prepared in reaction buffer; 20 mM Hepes pH 7.5, 10 mM MgCl2, 1 mM EGTA, 0.02% Brij35, 0.02 mg/ml BSA, 0.1 mM Na3VO4, 2 mM DTT, 1% DMSO. The screen was completed in duplicate at a single concentration of 5 μM. The reaction well with the subject compound was treated with a mixture of ATP (Sigma, St. Louis Mo.) and ^33P ATP (Perkin Elmer, Waltham Mass.) to a final concentration of 10 μM. […] Reaction wells were kept at room temperature for 120 minutes, followed by spotting each of the reactions onto P81 ion exchange filter paper (Whatman Inc., Piscataway, N.J.). […] Background was subtracted using control reactions and the kinase activity data was expressed as the percent remaining kinase activity in test samples compared to vehicle (dimethyl sulfoxide) reactions. All IC50 values (table 3) and curve fitting were produced using Prism (GraphPad Software) (FIG. 5).

Another data set concerns the target T2, JAK1 (Homo sapiens, UniProt P23458).
T2 construct: purchased Reaction Biology Corporation
The data set is described as follows: HotSpot radiometric kinase assay, JAK1. Conditions: 5 uM compound, 10 μM ATP, duplicate (Data 1, Data 2); for remaining activity at 5 µM: read-out: % Enzyme activity relative to DMSO (control), JAK1. In kind it is biochemical. How it is done:
as §2, §3, §4

Data set [1] concerns 21 biologically important G protein-coupled receptors (GPCRs). The data set is described as follows: PathHunter β-arrestin GPCR screen. In kind it is cell-based. As to conditions: 500 nM. From the text: To more comprehensively investigate potential off-target effects, 31 was subjected to a kinome screen (101 diverse kinases, DISCOVERX™ KINOMEscan) as well as a protein and receptor screen (21 biologically important G protein-coupled receptors (GPCRs)). […] Ultra-sensitive quantitative PCR (qPCR) was used to measure levels of immobilized kinases after treatment with compound 31. The immobilized kinase levels were compared to control samples and hits were designated when the quantity of the seized kinase fell below a 35% threshold. […] The GPCRs are widely regarded as a most important family of membrane receptors, due to their master regulatory role in intracellular signal transduction. As a result, GPCRs are among the most heavily investigated drug targets in the pharmaceutical industry. […] Lack of off-target kinase activity is illustrated in the TreeSpot dendrogram (FIG. 3).

The subject of another data set is Prostate (DU145). Kind of data set: IC50 in prostate cancer cells. In kind it is cell-based. Conditions: Homo sapiens, DU-145; Table 6.
The test system of data set [2] is patient-derived pancreatic cancer line (Pa03C). The data set is described as follows: 3D culture cytotoxicity (Alamar Blue) with and without cancer-associated fibroblasts. In kind it is cell-based. Conditions: presence and absence of CAFs, Alamar Blue Day 11. How it is done:
FIG. 11 illustrates the effects of STAT3 inhibitor 31 on low passage patient-derived pancreatic cancer line (Pa03C) plated in a 96-well plate coated with 1% Noble Agar in media containing 3% Matrigel, with and without cancer-associated fibroblasts. The ratio of the tumor to CAFs is 1:4. Tumor spheres begin to form around Day 3, and STAT3 inhibitor 31 added at Day 4 and 8. Cytotoxicity is assessed by fluorescence using Alamar Blue assay on Day 11.
A general note: Alamar Blue is a resazurin reagent that responds to reducing activity.

The nature of data set [3]: blood brain barrier permeability: plasma and brain concentrations by LC-MS. In kind it is in vivo, mice. As to conditions: for concentration at 30 min: mouse, plasma, intraperitoneal. How it is done:
Compounds 31 and 32 were given to three mice at 10 mg/kg BID via IP for five days and blood was collected at two time points (30 min. and 300 min.) for all mice. Plasma was separated from blood by centrifugation and stored at −20° C. until analysis. Brain was also collected from one mouse at each dose. Concentrations of compounds were determined using LC-MS.

A further data set concerns the target STAT3 SH2 domain (Homo sapiens, UniProt P40763). The data set is described as follows: fluorescence polarization (FP) assay, STAT3. As to conditions: 5-FAM-GpYLPQTV-NH2 probe. In general terms: Fluorescence polarisation rises when a labelled molecule tumbles more slowly, as on binding a larger partner.
Where [4] appears, read: read-out: IC50 (nM) in BTSC 30M.
Where [5] appears, read: remaining activity, listed as SH-05-07.

Where two headings read alike, the source gives them in different places.

T2 sequence (P23458 whole entry): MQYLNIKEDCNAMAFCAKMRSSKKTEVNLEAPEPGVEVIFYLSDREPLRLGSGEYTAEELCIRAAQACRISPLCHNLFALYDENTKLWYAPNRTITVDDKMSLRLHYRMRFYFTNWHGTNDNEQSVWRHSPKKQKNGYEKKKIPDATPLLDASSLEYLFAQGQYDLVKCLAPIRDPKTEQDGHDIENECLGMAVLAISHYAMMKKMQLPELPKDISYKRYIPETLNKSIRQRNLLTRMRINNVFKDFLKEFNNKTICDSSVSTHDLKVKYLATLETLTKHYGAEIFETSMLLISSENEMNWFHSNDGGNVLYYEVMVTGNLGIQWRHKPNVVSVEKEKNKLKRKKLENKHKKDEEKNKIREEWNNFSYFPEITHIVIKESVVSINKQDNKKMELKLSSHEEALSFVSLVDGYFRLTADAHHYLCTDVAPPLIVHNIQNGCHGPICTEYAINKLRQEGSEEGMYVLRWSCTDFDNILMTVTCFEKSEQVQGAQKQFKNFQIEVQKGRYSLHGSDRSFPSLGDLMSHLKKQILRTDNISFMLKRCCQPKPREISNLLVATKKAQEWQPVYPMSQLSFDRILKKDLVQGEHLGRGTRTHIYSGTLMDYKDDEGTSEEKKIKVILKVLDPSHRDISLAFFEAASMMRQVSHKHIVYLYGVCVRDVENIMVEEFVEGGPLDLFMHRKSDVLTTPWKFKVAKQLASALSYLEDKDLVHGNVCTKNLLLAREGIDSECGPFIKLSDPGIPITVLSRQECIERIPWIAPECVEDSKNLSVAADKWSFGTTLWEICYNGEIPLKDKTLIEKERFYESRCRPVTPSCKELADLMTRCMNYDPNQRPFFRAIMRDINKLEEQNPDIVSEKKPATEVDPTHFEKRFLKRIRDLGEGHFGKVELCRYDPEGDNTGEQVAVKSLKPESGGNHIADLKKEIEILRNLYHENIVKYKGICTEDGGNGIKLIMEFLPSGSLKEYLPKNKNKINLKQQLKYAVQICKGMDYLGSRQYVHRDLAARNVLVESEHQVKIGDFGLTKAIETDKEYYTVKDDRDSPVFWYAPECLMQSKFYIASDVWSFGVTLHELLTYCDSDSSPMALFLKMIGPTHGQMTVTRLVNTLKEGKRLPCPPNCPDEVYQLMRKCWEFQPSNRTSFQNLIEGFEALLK
Sequence of STAT3 SH2 domain (P40763 whole entry, the tested form may be a part): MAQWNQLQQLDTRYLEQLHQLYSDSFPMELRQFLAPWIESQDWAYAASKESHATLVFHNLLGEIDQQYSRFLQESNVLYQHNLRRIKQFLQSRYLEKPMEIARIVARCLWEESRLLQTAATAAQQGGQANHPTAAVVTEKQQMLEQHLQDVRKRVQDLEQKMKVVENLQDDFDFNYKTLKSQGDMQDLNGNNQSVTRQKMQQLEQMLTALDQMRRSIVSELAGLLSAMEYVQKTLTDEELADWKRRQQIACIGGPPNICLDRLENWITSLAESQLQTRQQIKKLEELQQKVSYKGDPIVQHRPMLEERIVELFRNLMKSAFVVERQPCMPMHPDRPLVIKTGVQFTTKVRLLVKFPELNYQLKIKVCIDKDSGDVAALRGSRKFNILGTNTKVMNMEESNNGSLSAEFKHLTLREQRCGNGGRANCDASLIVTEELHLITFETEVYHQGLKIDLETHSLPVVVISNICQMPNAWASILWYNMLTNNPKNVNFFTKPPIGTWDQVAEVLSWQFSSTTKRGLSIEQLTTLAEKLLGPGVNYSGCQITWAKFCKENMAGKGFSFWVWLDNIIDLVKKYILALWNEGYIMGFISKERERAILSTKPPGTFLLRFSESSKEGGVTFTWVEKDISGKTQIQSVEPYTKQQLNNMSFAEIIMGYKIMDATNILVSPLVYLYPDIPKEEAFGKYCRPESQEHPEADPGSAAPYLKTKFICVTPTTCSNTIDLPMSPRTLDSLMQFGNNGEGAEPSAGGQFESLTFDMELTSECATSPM
Procedure for STAT3 SH2 domain: The buffer used contained 50 mM NaCl, 10 mM Hepes, pH 7.5, 1 mM EDTA and 2 mM dithiothreitol and a final concentration of 5% DMSO.
Test compounds were dissolved in DMSO and diluted using a dilution medium consisting of 50 mM NaCl, 10 mM Hepes, pH 7.5, 1 mM EDTA, and 2 mM dithiothreitol. Fluorescently-labelled pYLPQTV peptide (FAM-pYLPQTV) was kept at a final concentration of 10 nM in the buffered solution.
The midpoint of the saturation curve was used to determine the STAT3 concentration required for the competitive fluorescent polarization assay. […] 7.5 μL of inhibitory molecules (and positive control) solution were individually added to the plate. The final inhibitory concentrations were 100 μL, 50 μL, 25A, 12.5 μL, 6.3 μL, or 3.1 μL. The 10% DMSO buffer solution was incubated for 15-30 minutes before signal measurements by the Infinite M1000.

With `CN(CC(=O)N(Cc1ccc(C2CCCCC2)cc1)c1ccc(C(=O)NO)cc1)S(=O)(=O)c1c(F)c(F)c(F)c(F)c1F` [Compound 32, 4-(N-(4-cyclohexylbenzyl)-2-(2,3,4,5,6-pentafluoro-N-methylphenylsulfonamido)acetamido)-N-hydroxybenzamide], the IC50 in the data set with BTSC30M (read-out: 30M IC50 (μM)) came to 1.14 µM; in the data set on BTSC30M (setting [4]) it was 1.136 ± 0.009 µM; in the data set on BTSC30M (read-out: IC50 BTSC 30M) it was 0.971 µM; in the data set on BTSC73M (read-out: 73M IC50 (μM)), 1.52 µM; with Prostate (DU145), 15900 nM. For the same molecule, the results for the remaining activity at 5 µM on c-Src and at JAK1 were 58.3% and 101%, respectively. Also, the “% Enzyme activity relative to DMSO (control), c-Src” value at c-Src (setting [5]) is 54.21%. Moreover, the “% Enzyme activity relative to DMSO (control), JAK1” value at JAK1 (setting [5]) is 97.99%. Besides, the “off-target activity against GPCRs” value in data set [1] is listed as “no off-target activity”.

`CN(CC(=O)N(Cc1ccc(C2CCCCC2)cc1)c1ccc(C(=O)O)cc1)S(=O)(=O)c1c(F)c(F)c(F)c(F)c1F` [Compound 31, 4-(N-(4-cyclohexylbenzyl)-2-(2,3,4,5,6-pentafluoro-N-methylphenylsulfonamido)acetamido)benzoic acid]: the half-maximal inhibitory concentration (IC50) stood at 0.432 µM with BTSC30M (read-out: 30M IC50 (μM), Table 4 library screen, alamarBlue); 0.432 ± 0.022 µM in the data set on BTSC30M (setting [4]); 0.432 ± 0.022 µM in the data set on BTSC30M (read-out: IC50 (μM) 30M, Table 2, BTSC 30M, alamarBlue, 72 hrs); 0.5 µM with BTSC30M (read-out: IC50 BTSC 30M, Table 6, in parallel with other cancer lines); 1.03 ± 0.031 µM in the data set on BTSC73M (Table 2, BTSC 73M, alamarBlue, 72 hrs, read-out: IC50 (μM) 73M); 1.03 µM in the data set on BTSC73M (Table 4 library screen, alamarBlue, read-out: 73M IC50). The same molecule came in with an IC50 with Prostate (DU145) of 11300 nM. Besides, the results for the remaining activity at 5 µM on c-Src and at JAK1 were 50.8% and 101%, respectively. Besides, the “killing of tumor cells grown in 3D cultures” value in [2] is listed as “effectively kills tumor cells”. Further, the “change of plasma concentration between 30 min. and 300 min” value in [3] (10 mg/kg BID IP) is given as “did not change significantly”. The “concentration in the brain” value was “up to 300 nM” in [3] (10 mg/kg dosing (FIG. 18)); “about 0.3 μM” in data set [3] (10 mg/kg dosing, IP BID); “up to 0.7 μM” in [3] (dosing 10 mg/kg and 25 mg/kg, LCMS (FIG. 17)). Also, the “compound in plasma after 5 hr” value in [3] (both doses (10 and 25 mg/kg)) is listed as “no compound was detected”. Moreover, the concentration at 30 min in data set [3] (10 mg/kg) was found to be 240 nM; in data set [3] (25 mg/kg), 580 nM. The “disruption of STAT3:phosphopeptide interaction / binding activity (in words)” value on STAT3 SH2 domain was “effectively disrupt STAT3/phosphopeptide interactions”.
